Where “and” joins values, the source holds several entries; their conditions need not be identical. Equal values may be shown once. Inconclusive results are not listed.
System: CD8F1 mice, subcutaneous mammary adenocarcinoma, T/C%
Test: NCI In Vivo Anticancer Drug Screen. Data for tumor model Mammary Adenocarcinoma CD8F1 (subcutaneous) in CD8F1
Settings: higher = larger tumour
How it was run: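 Antitumor activity is assessed in transplantable-tumor mice by comparing the treated group with a vehicle-treated control group. Survival or tumor size serves as the measure, reported as T divided by C.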

[1] = endpoint: median tumor weight (est.), dose: 2.0 mg/kg/injection, schedule: Q07DX005 (ip), vehicle: saline
[2] = endpoint: median tumor weight (est.), dose: 6.25 mg/kg/injection, schedule: Q07DX005 (ip), vehicle: saline with Tween-80
[3] = endpoint: median tumor weight (est.), dose: 12.5 mg/kg/injection, schedule: Q07DX005 (ip), vehicle: saline with Tween-80
[4] = endpoint: median tumor weight change, dose: 250.0 mg/kg/injection, schedule: Q01DX001 (ip), vehicle: Klucel (hydroxypropylcellulose) (HPC)
[5] = endpoint: median tumor weight change, dose: 62.5 mg/kg/injection, schedule: Q01DX001 (ip), vehicle: Klucel (hydroxypropylcellulose) (HPC)

BrC[P+](CBr)(CBr)CBr
T/C (endpoint: median tumor weight change, dose: 125.0 mg/kg/injection, schedule: Q01DX001 (ip), vehicle: saline with Tween-80): 124 % of control | T/C (endpoint: median tumor weight change, dose: 250.0 mg/kg/injection, schedule: Q01DX001 (ip), vehicle: saline with Tween-80): 152 % of control

[Cl][Sn]([c]1ccccc1)[c]1ccccc1
T/C (endpoint: median tumor weight change, dose: 1.56 mg/kg/injection, schedule: Q01DX001 (ip), vehicle: saline): 81 % of control | T/C (endpoint: median tumor weight change, dose: 3.12 mg/kg/injection, schedule: Q01DX001 (ip), vehicle: saline): 63 % of control | T/C (endpoint: median tumor weight change, dose: 6.25 mg/kg/injection, schedule: Q01DX001 (ip), vehicle: saline): 94 % of control | T/C (endpoint: median tumor weight change, dose: 12.5 mg/kg/injection, schedule: Q01DX001 (ip), vehicle: saline): 81 % of control | T/C (endpoint: median tumor weight change, dose: 25.0 mg/kg/injection, schedule: Q01DX001 (ip), vehicle: saline): 78 % of control | T/C (endpoint: median tumor weight change, dose: 25.0 mg/kg/injection, schedule: Q01DX001 (ip), vehicle: water): 47 % of control

CC(=O)C(O)N1C(=O)C=CC1=O (configuration not stated)
T/C (endpoint: median tumor weight (est.), dose: 0.62 mg/kg/injection, schedule: Q07DX005 (ip), vehicle: saline): 78 % of control | T/C (endpoint: median tumor weight (est.), dose: 1.25 mg/kg/injection, schedule: Q07DX005 (ip), vehicle: saline): 74 % of control | T/C (endpoint: median tumor weight (est.), dose: 2.5 mg/kg/injection, schedule: Q07DX005 (ip), vehicle: saline): 77 % of control | T/C (endpoint: median tumor weight (est.), dose: 5.0 mg/kg/injection, schedule: Q07DX005 (ip), vehicle: saline): 50 % of control

N[C@H](C(=O)O)[C@@H]1CC(Cl)=NO1
T/C (endpoint: median tumor weight (est.), dose: 1.0 mg/kg/injection, schedule: Q07DX005 (ip), vehicle: saline): 167 % of control | T/C [1]: 92 % of control and 100 % of control and 101 % of control | T/C (endpoint: median tumor weight (est.), dose: 128.0 mg/kg/injection, schedule: Q07DX005 (ip), vehicle: saline): 13 % of control

CC(C)(C)C1CCCCC1
T/C (endpoint: median tumor weight (est.), dose: 12.5 mg/kg/injection, schedule: Q07DX005 (ip), vehicle: Klucel (hydroxypropylcellulose) (HPC)): 85 % of control | T/C (endpoint: median tumor weight (est.), dose: 25.0 mg/kg/injection, schedule: Q07DX005 (ip), vehicle: Klucel (hydroxypropylcellulose) (HPC)): 69 % of control | T/C (endpoint: median tumor weight (est.), dose: 100.0 mg/kg/injection, schedule: Q07DX005 (ip), vehicle: Klucel (hydroxypropylcellulose) (HPC)): 94 % of control | T/C (endpoint: median tumor weight (est.), dose: 200.0 mg/kg/injection, schedule: Q07DX005 (ip), vehicle: Klucel (hydroxypropylcellulose) (HPC)): 73 % of control | T/C (endpoint: median tumor weight (est.), dose: 400.0 mg/kg/injection, schedule: Q07DX005 (ip), vehicle: Klucel (hydroxypropylcellulose) (HPC)): 69 % of control

OCC1OC(n2cnc3c2nnn2ccnc32)C(O)C1O (configuration not stated)
T/C (endpoint: mean tumor weight, dose: 37.5 mg/kg/injection, schedule: Q07DX005 (ip), vehicle: saline): 93 % of control and 94 % of control | T/C (endpoint: mean tumor weight, dose: 75.0 mg/kg/injection, schedule: Q07DX005 (ip), vehicle: saline): 202 % of control and 91 % of control | T/C (endpoint: mean tumor weight, dose: 150.0 mg/kg/injection, schedule: Q07DX005 (ip), vehicle: saline): 103 % of control and 118 % of control

NNC(=S)N/N=C/c1ccccn1
T/C [2]: 112 % of control | T/C [3]: 84 % of control | T/C (endpoint: median tumor weight (est.), dose: 25.0 mg/kg/injection, schedule: Q07DX005 (ip), vehicle: saline with Tween-80): 81 % of control | T/C (endpoint: median tumor weight (est.), dose: 50.0 mg/kg/injection, schedule: Q07DX005 (ip), vehicle: saline with Tween-80): 59 % of control

O=C1NCCN1c1ncc([N+](=O)[O-])s1
T/C (endpoint: mean tumor weight, dose: 100.0 mg/kg/injection, schedule: Q07DX005 (ip), vehicle: saline): 121 % of control | T/C (endpoint: mean tumor weight, dose: 200.0 mg/kg/injection, schedule: Q07DX005 (ip), vehicle: saline): 89 % of control | T/C (endpoint: mean tumor weight, dose: 400.0 mg/kg/injection, schedule: Q07DX005 (ip), vehicle: saline): 101 % of control

C[C@@]1(CO)[C@H](O)CC[C@@]2(C)[C@H]1CC[C@H]1C[C@@H]3C[C@@]12CC[C@@]3(O)COC(=O)CN
T/C (endpoint: median tumor weight change, dose: 9.88 mg/kg/injection, schedule: Q01DX001 (ip), vehicle: Klucel (hydroxypropylcellulose) (HPC)): 78 % of control | T/C (endpoint: median tumor weight change, dose: 18.75 mg/kg/injection, schedule: Q01DX001 (ip), vehicle: Klucel (hydroxypropylcellulose) (HPC)): 68 % of control | T/C (endpoint: median tumor weight change, dose: 37.5 mg/kg/injection, schedule: Q01DX001 (ip), vehicle: Klucel (hydroxypropylcellulose) (HPC)): 98 % of control | T/C (endpoint: median tumor weight change, dose: 75.0 mg/kg/injection, schedule: Q01DX001 (ip), vehicle: Klucel (hydroxypropylcellulose) (HPC)): 84 % of control | T/C (endpoint: median tumor weight change, dose: 62.5 micrograms/kg/injection, schedule: Q01DX001 (ip), vehicle: saline + alcohol): 170 % of control | T/C (endpoint: median tumor weight change, dose: 125.0 micrograms/kg/injection, schedule: Q01DX001 (ip), vehicle: saline + alcohol): 90 % of control | T/C (endpoint: median tumor weight change, dose: 250.0 micrograms/kg/injection, schedule: Q01DX001 (ip), vehicle: saline + alcohol): 115 % of control | T/C (endpoint: median tumor weight change, dose: 1000.0 micrograms/kg/injection, schedule: Q01DX001 (ip), vehicle: saline + alcohol): 106 % of control

O=C(NO)c1cc(O)c(O)c(O)c1
T/C (endpoint: median tumor weight change, dose: 300.0 mg/kg/injection, schedule: Q01DX001 (ip), vehicle: water): 124 % of control | T/C (endpoint: median tumor weight change, dose: 600.0 mg/kg/injection, schedule: Q01DX001 (ip), vehicle: water): 78 % of control

C/C=C/C1=CC(=O)C(O)C1O (configuration not stated)
T/C (endpoint: median tumor weight (est.), dose: 45.0 mg/kg/injection, schedule: Q07DX005 (ip), vehicle: water): 122 % of control | T/C (endpoint: median tumor weight (est.), dose: 90.0 mg/kg/injection, schedule: Q07DX005 (ip), vehicle: water): 78 % of control | T/C (endpoint: median tumor weight (est.), dose: 180.0 mg/kg/injection, schedule: Q07DX005 (ip), vehicle: water): 107 % of control

CN(C)c1ccc2c(N(C)C)cc(N(C)C)nc2c1
T/C (endpoint: median tumor weight (est.), dose: 3.12 mg/kg/injection, schedule: Q07DX005 (ip), vehicle: Klucel (hydroxypropylcellulose) (HPC)): 58 % of control | T/C (endpoint: median tumor weight (est.), dose: 6.25 mg/kg/injection, schedule: Q07DX005 (ip), vehicle: Klucel (hydroxypropylcellulose) (HPC)): 78 % of control

COc1cc([C@@H]2c3cc4c(cc3[C@@H](OC3OC5COC(C)OC5C(O)C3O)[C@H]3COC(=O)[C@H]23)OCO4)cc(OC)c1O (some centres not stated)
T/C [1]: 74 % of control | T/C (endpoint: median tumor weight (est.), dose: 4.0 mg/kg/injection, schedule: Q07DX005 (ip), vehicle: saline): 110 % of control | T/C (endpoint: median tumor weight (est.), dose: 8.0 mg/kg/injection, schedule: Q07DX005 (ip), vehicle: saline): 51 % of control | T/C (endpoint: median tumor weight (est.), dose: 16.0 mg/kg/injection, schedule: Q07DX005 (ip), vehicle: clinical formulation): 38 % of control | T/C (endpoint: median tumor weight (est.), dose: 16.0 mg/kg/injection, schedule: Q07DX005 (ip), vehicle: saline): 25 % of control and 48 % of control | T/C (endpoint: median tumor weight (est.), dose: 32.0 mg/kg/injection, schedule: Q07DX005 (ip), vehicle: clinical formulation): 11 % of control | T/C (endpoint: median tumor weight (est.), dose: 32.0 mg/kg/injection, schedule: Q07DX005 (ip), vehicle: saline): 8 % of control and 9 % of control

Cc1cc(NS(=O)(=O)c2ccc(N=Nc3cc(N=Nc4ccc(S(=O)(=O)Nc5cc(C)nc(C)n5)cc4)c4c(NC(=O)C(Cl)Cl)cccc4c3OC(=O)C(Cl)Cl)cc2)nc(C)n1 (tested in a mixture with another compound)
T/C (endpoint: median tumor weight change, dose: 250.0 mg/kg/injection, schedule: Q01DX001 (ip), vehicle: suspension in saline): 167 % of control | T/C (endpoint: median tumor weight change, dose: 500.0 mg/kg/injection, schedule: Q01DX001 (ip), vehicle: suspension in saline): 65 % of control

O=NN(CCCl)C(=O)Oc1ccc(OC(=O)N(CCCl)N=O)cc1
T/C (endpoint: median tumor weight change, dose: 25.0 mg/kg/injection, schedule: Q01DX001 (ip), vehicle: Klucel (hydroxypropylcellulose) (HPC)): 107 % of control | T/C (endpoint: median tumor weight change, dose: 50.0 mg/kg/injection, schedule: Q01DX001 (ip), vehicle: Klucel (hydroxypropylcellulose) (HPC)): 75 % of control

CC1(O)CC23CC(O)C4(O)C(CC(O)C4(C)C)C(C)(O)C2CCC1C3O (configuration not stated)
T/C (endpoint: median tumor weight change, dose: 0.25 mg/kg/injection, schedule: Q01DX001 (ip), vehicle: Klucel (hydroxypropylcellulose) (HPC)): 39 % of control | T/C (endpoint: median tumor weight change, dose: 0.5 mg/kg/injection, schedule: Q01DX001 (ip), vehicle: Klucel (hydroxypropylcellulose) (HPC)): 73 % of control

O=C(O)C1(NO)CCCCC1
T/C (endpoint: median tumor weight change, dose: 125.0 mg/kg/injection, schedule: Q01DX001 (ip), vehicle: Klucel (hydroxypropylcellulose) (HPC)): 76 % of control | T/C [4]: 64 % of control | T/C (endpoint: median tumor weight change, dose: 500.0 mg/kg/injection, schedule: Q01DX001 (ip), vehicle: Klucel (hydroxypropylcellulose) (HPC)): 61 % of control | T/C (endpoint: median tumor weight change, dose: 1000.0 mg/kg/injection, schedule: Q01DX001 (ip), vehicle: Klucel (hydroxypropylcellulose) (HPC)): 76 % of control | T/C (endpoint: median tumor weight change, dose: 2000.0 mg/kg/injection, schedule: Q01DX001 (ip), vehicle: Klucel (hydroxypropylcellulose) (HPC)): 124 % of control

Nc1ncnc2c1nnn2C1OC(CO)C(O)C1O (configuration not stated)
T/C [5]: 111 % of control | T/C [4]: 39 % of control and 40 % of control

C=C/C(C)=C/[C@H](C)C(=O)C[C@H](O)CC1CC(=O)NC(=O)C1
T/C [2]: 41 % of control | T/C [3]: 62 % of control | T/C (endpoint: median tumor weight (est.), dose: 100.0 mg/kg/injection, schedule: Q07DX005 (ip), vehicle: saline with Tween-80): 157 % of control | T/C (endpoint: median tumor weight (est.), dose: 200.0 mg/kg/injection, schedule: Q07DX005 (ip), vehicle: saline with Tween-80): 50 % of control

O=S(=O)(O)O
T/C [5]: 101 % of control

C[C@@]12C(=O)OC(=O)[C@]1(C)[C@H]1CC[C@@H]2O1
T/C (endpoint: median tumor weight change, dose: 0.31 mg/kg/injection, schedule: Q01DX001 (ip), vehicle: Klucel (hydroxypropylcellulose) (HPC)): 100 % of control | T/C (endpoint: median tumor weight change, dose: 1.25 mg/kg/injection, schedule: Q01DX001 (ip), vehicle: Klucel (hydroxypropylcellulose) (HPC)): 118 % of control

From PubChem BioAssay AID220 (DTP/NCI, 2004)
